From patent publication US20110052494A1, “H-ANTIGEN BINDING POLYPEPTIDES AND METHODS OF USE” (priority 2008, published 2011)

What was measured:
[1] = tested on: LLY (Streptococcus mitis SK597 lectinolysin, SEQ ID NO:1) on human donor 1 platelets; assay: Block of the lectin-dependent enhancement of LLY pore formation (calcein release from platelets); format: cell-based; settings: high responder platelets pretreated
Method: Calcein release assay. PRP was diluted 1:100 with HEPES/saline assay buffer (2 mM CaCl2, 1 mM MgCl2, 150 mM NaCl, 10 mM HEPES, pH 7.5) and incubated with 2 μM calcein-acetoxy methyl ester (Molecular Probes, Eugene, Oreg.) for 10 minutes at room temperature as previously described (17). LLY (0.7-2.9 nM) was incubated with the calcein-loaded PRP for 10 minutes at room temperature. Samples were then diluted with HEPES/saline and analyzed on a FACSCalibur flow cytometer (Becton-Dickinson) using settings as described previously (17). Cells losing calcein fluorescence were quantified as a percentage of total platelets.
The EC50 values for LLY- and LLY^CDC-dependent calcein release were calculated using a nonlinear sigmoidal dose-response curve fit of the data (Prism Software).
We hypothesized that enhancement of LLY activity resulted from a glycan-dependent interaction of the lectin domain after monomer bound the cell surface. If correct then preincubating platelets with LLY^Lec should prevent interaction of the lectin domain of LLY with surface glycans and block the enhancement of LLY activity on the highly sensitive donor 1 platelets.

[2] = target: T1, LLY^Lec-Q190C (isolated fucolectin domain of Streptococcus mitis SK597 lectinolysin, SEQ ID NO:3, Q190C = position 154 of the domain) (Streptococcus sp. SK597, UniProt B3UZR3, Q190C); assay: Glycan microarray binding, Alexa-488 labeled LLY^Lec; settings: for glycan microarray binding at the lowest LLY^Lec concentration: 5.6 nM LLY^Lec, determinants lacking the difucosylated structures
T1 construct: Alexa-488 maleimide on Cys-190; E. coli
Method: FIGS. 7A & 7B. LLY^Lec preferentially binds Le^y and Le^b glycans. Version 2.1 of the printed glycan microarray (Consortium for Functional Glycomics) was probed with Alexa-488 labeled LLY^Lec-Q190C at 560 nM, 56 nM and 5.6 nM. […] The average RFU (from 4-6 analysis with high and low values eliminated) for each bound glycan was determined as described in the Methods and the % CV (100×Standard Deviation÷Average) provides an indication of the precision of each measurement. […] AVG RFU is average relative fluorescence units; SP, spacer arm or linker between glycan and surface of the array; SP0, —CH2CH2NH2; and SP8, CH2CH2CH2NH2. Circles; galactose, squares; GalNac, triangles, fucose, squares; GlcNAc.
Chemical modification of LLY and its derivatives with sulfhydryl-specific fluorescent probes. Cysteine derivatives of LLY and LLY^Lec (i.e., the 162 amino acid fucolectin domain) were modified with Alexa Fluor 488 C5-maleimide (Invitrogen) via the sulfhydryl group as previously described (12). Modified protein stocks were adjusted to 10% (v/v) sterile glycerol, quick frozen in liquid nitrogen, and stored at −80° C. Proteins were labeled at an efficiency of 75% or greater.
Glycan microarray binding assay and scanning. Glycan microarrays were prepared as described previously (33,37) and obtained from the NIH/NIGMS-funded Consortium for Functional Glycomics (see http://www.functionalglycomics.org/static/index.shtml). Before assay, the slides were rehydrated for 5 minutes in TSM buffer (20 mM Tris-HCL, 150 mM sodium chloride (NaCl), 0.2 mM calcium chloride (CaCl2) and 0.2 mM magnesium chloride (MgCl2). Alexa-488-labeled LLY^Q190C and its derivatives were used in the binding assay (560-640 nM), and the bound proteins were detected directly via the fluorescent tag.
The slides were scanned with a Perkin Elmer ProScanarray MicroArray Scanner (Waltham, Mass.) using an excitation wavelength of 488 nm. ImaGene software (BioDiscovery, Inc., El Segundo, Calif.) was used to quantify fluorescence. The data are reported as average relative fluorescence units (RFU) from 4 of the 6 replicates (after removal of the highest and lowest values) for each glycan represented on the array. Versions 2.1 and 3.0 of the printed array were used in these studies and a complete list of glycans printed on these arrays can be found at the Functional Glycomics Gateway website:
Purified LLY^Lec-Q190C was fluorescently labeled with Alexa-488 and used to probe the glycan microarray. […] The AAA glycan binding site contains three key residues that make polar contacts with the fucose molecule. The Nε of His-52 contacts O-5 of the fucose ring whereas the guanidinium groups of Arg-79 and Arg-86 make contact with 3-OH and 4-OH ring hydroxyls of fucose (10). […]

Compound	effect of pretreatment on the high/low responder EC50 difference [1]	glycan microarray binding at the lowest LLY^Lec concentration [2]	glycan microarray ligand preference ([2]; printed glycan microarray, overall conclusion)
C[C@@H]1OC(O)[C@@H](O)[C@H](O)[C@@H]1O (stereo partly drawn) [fucose, L-fucose]	This difference was abolished		
Fucα1-2Galβ [H-antigen]		binds weakly or not at all	weaker ligand
GaNAclα1-3[Fucα1-2]Galβ1-3/4R [blood group A]		binds weakly or not at all	
Galα1-3[Fucα1-2]Galβ1-3/4R [blood group B]		binds weakly or not at all	
